According to US20170049777A1, “COMPOSITIONS, METHODS AND USES FOR THE TREATMENT OF DIABETIC NEUROPATHIES” (Pharnext, priority 2014, published 2017):
Like-named read-outs stand apart in the source and are kept apart here.

How the values were obtained:
rat cortical neurons = experiment: Neurite network length of rat cortical primary neurons under high glucose; type: cell-based; details: 45 mmol/L glucose, 24 hours, MAP-2 staining
Method: Rat cortical neurons are cultured as described by Singer et al.. Briefly, pregnant female rats of 15 days gestation are killed by cervical dislocation (rats Wistar) and the foetuses are removed from the uterus. The cortex is then removed and placed in ice-cold medium of Leibovitz (L15) containing 2% of Penicillin 10.000 U/mL and Streptomycin 10 mg/mL and 1% of bovine serum albumin (BSA). Cortices are dissociated by trypsin for 20 min at 37° C. (0.05%). The reaction is stopped by the addition of Dulbecco's modified Eagle's medium (DMEM) containing DNasel grade II and 10% of foetal calf serum (FCS). Cells are then mechanically dissociated by 3 serial passages through a 10 mL pipette and centrifuged at 515×g for 10 min at +4° C. The supernatant is discarded and the pellet of cells is re-suspended in a defined culture medium consisting of Neurobasal supplemented with B27 (2%), L-glutamine (0.2 mM), 2% of PS solution and 10 ng/mL of BDNF. Viable cells are counted in a Neubauer cytometer using the trypan blue exclusion test. The cells are seeded at a density of 30 000 cells/well in 96 well-plates (wells were pre-coated with poly-L-lysine (10 μg/mL)) and were cultured at +37° C. in a humidified air (95%)/CO2 (5%) atmosphere.
After 10 days of culture, cells are incubated with drugs and their combinations. After 1 hour, medium glucose concentration is raised to 45 mmol/L glucose in defined medium without BDNF but together with tested compound. Cortical neurons are so cultured for 24 hours. BDNF (10 ng/mL) is used as a positive (neuroprotective) control. Three independent cultures were performed per condition, 6 wells per condition.
After 24 hours of culture in high glucose conditions, the supernatant is taken off and the cortical neurons are fixed by a cold solution of ethanol (95%) and acetic acid (5%) for 5 min. After permeabilization with 0.1% of saponin, cells are blocked for 2 hours with PBS containing 1% foetal calf serum. Then, cells are incubated with monoclonal antibody anti microtubule-associated-protein 2 (MAP-2; Sigma). This antibody stains specifically cell bodies and neurites of neurons. […] Nuclei of neurons are labelled by a fluorescent marker (Hoechst solution, Sigma).
Per well, 10 pictures are taken using InCell Analyzer™ 1000 (GE Healthcare) with 20× magnification. All pictures are taken in the same conditions. Analysis of the neurite network is done using Developer software (GE Healthcare) in order to assess the total length of neurite network.

[1] = tested on: DRG explants from STZ rats; experiment: Neurite outgrowth from dorsal root ganglia explants from STZ rats; type: cell-based, rat
[2] = tested on: sensory neurons and Schwann cells co-culture; experiment: Myelination in co-culture of sensory neurons and Schwann cells under high glucose (MBP expression); type: cell-based, rat; parameters: key: +: significant improvement in length of myelinated axons when compared to non-treated conditions as assessed by MBP expression; details: 45 mmol/L glucose, 50 μg/mL ascorbic acid, MBP staining, 5, 9, 10, 11 and 13 days
Method: A model of co-culture was used as an in vitro model of diabetes. This model of myelination consists in co-culturing sensory neurons and Schwann cells from Wistar rats dissociated dorsal root ganglia (DRG).
The aim of this study is to assess the effect of tested compounds and compound combinations on myelination process under high glucose conditions mimicking diabetes. The effect of the tested compounds on myelination, either in high glucose concentration or not, is assessed by evaluating Myelin Basic Protein (MBP) expression in presence of ascorbic acid.
Fifteen days gestation pregnant female rats are killed by cervical dislocation. The embryos are removed from the uterus and are at similar foetal stage of development.
Rat DRG are cultured as previously described by Cosgaya et al. and Rangaraju et al..
Each embryo is dispatched on numerating petri dish (35 mm of diameter). DRG of each embryo is collected, placed in ice-cold medium of Leibovitz (L15, Invitrogen). At the end of the dissection, DRG of TGM are pooled and dissociated by trypsinization (trypsin EDTA, 0.05%; Invitrogen) for 20 min at 37° C. The reaction is stopped by addition of DMEM containing 10% of foetal bovine serum (FBS) in the presence of DNAase I (Roche). The suspension is triturated with a 10 mL pipette. Cells are then centrifuged at 350×g for 10 min at room temperature. The pellet of dissociated cells is resuspended in neurobasal medium (Invitrogen) containing 2% of B27 (Invitrogen), 1% of penicillin-streptomycin (Invitrogen), 1% de L glutamine and 50 ng/mL NGF (Sigma). This medium is the neuronal medium. Viable cells are counted in a Neubauer cytometer using the trypan blue exclusion test (Sigma) and seeded on the basis of 10 000 cells per well in 96 well-plates (Greiner) treated with poly-L-lysine. The plates are maintained at 37° C. in a humidified incubator, in an atmosphere of air (95%)-CO2 (5%). Half of the standard neuronal culture medium is changed every other day. The cultures are maintained in standard neurobasal medium for 7 days to allow Schwann cells to populate the sensory neuron neurites. On day 7, the cultures are fed with standard neuronal medium supplemented or not with 50 μg/mL ascorbic acid in order to initiate basal lamina formation and myelination.
On Day 7, the Following Tested Compounds (Alone or in Combination) Listed in Table 5 are added in the medium with 50 μg/mL ascorbic acid. Basal glucose in culture medium is 25 mmol/L, which is necessary for DRG neuron survival. To produce a hyperglycemic insult, 20 mmol/L additional glucose (total 45 mmol/L glucose) is added to the media for the period specified.
The tested compounds are incubated for 5 different times: 5, 9, 10, 11 and 13 days.
Three separate and independent cultures of DRG are done. These conditions are assessed in presence of ascorbic acid, 6 wells per condition. The solution ready to use of all tested compounds are extemporaneously prepared from a stock solution, stored at −20° C. This solution is prepared once a week. Half of the standard neuronal medium supplemented with tested compounds, ascorbic acid (each at the concentration 1×) and glucose are changed every other day.
After 5, 9, 10, 11 and 13 days of incubation, cells are fixed by a cold solution of ethanol (95%) and acetic acid (5%) for 10 min. The cells are permeabilized and blocked with PBS containing 0.1% saponin and 10% goat serum for 15 min. Then, the cells are incubated with a specific marker of myelin: polyclonal antibody anti-myelin basic protein (MBP) antibody (Sigma 118K0431).
Nuclei of neurons are labelled by a fluorescent marker (Hoechst solution, SIGMA ref B1155).
Per well, 20 pictures are taken using InCell Analyzer™ 1000 (GE Healthcare) with 20× magnification. All images are taken in the same conditions. Analysis of total length of myelinated axons was automatically done (length and area around axons) using
Developer software (GE Healthcare). All values will be expressed as mean+/−s.e.mean. […]

[3] = spinal cord explants from diabetic rats cultured 24-48-72 hours with compound

| SMILES | Protection of neurite network, rat cortical primary cell culture (rat cortical neurons) | protecting DRG from apoptosis and/or improving neurite outgrowth [1] | Protection of neurite network, DRG explants from STZ rats [1, 3] | Myelinated axon length [2] | Protection of neurite network, DRG explants from STZ rats [1] |
| --- | --- | --- | --- | --- | --- |
| Nc1nc(N)c2nc(-c3ccccc3)c(N)nc2n1 [triamterene] | + | particularly efficient | + | + |  |
| CCN(CC)C(=O)N1CCN(C)CC1 [diethylcarbamazine] | + | particularly efficient | + | + |  |
| CC(C(O)c1ccc(O)cc1)N1CCC(Cc2ccccc2)CC1 (stereo not drawn) [ifenprodil] | + | particularly efficient | + | + |  |
| C[C@@H]1CC(=O)NN=C1c1ccc(NN=C(C#N)C#N)cc1 [levosimendan] | + | particularly efficient | + | + |  |
| C[C@@H](NCCCc1cccc(C(F)(F)F)c1)c1cccc2ccccc12 [cinacalcet] | + | particularly efficient | + | + |  |
| Cc1cccc(C)c1OCC(C)N (stereo not drawn) [mexiletine] | + | particularly efficient | + | + |  |
| Cc1ccc(C(=O)C(C)CN2CCCCC2)cc1 (stereo not drawn) [tolperisone] | + | particularly efficient | + | + |  |
| NCC(CC(=O)O)c1ccc(Cl)cc1 (stereo not drawn) [baclofen] | + | particularly efficient |  | + | + |
| CN(C)CC[C@@H](c1ccc(Br)cc1)c1ccccn1 [dexbrompheniramine] | + | particularly efficient | + | + |  |
| CC(=O)NCCCS(=O)(=O)O [acamprosate] | + | particularly efficient | + | + |  |
| Cc1cccc(Nc2ccncc2S(=O)(=O)NC(=O)NC(C)C)c1 [torasemide] | + | particularly efficient | + | + |  |
| C1COC(NC(C2CC2)C2CC2)=N1 [rilmenidine] | + | particularly efficient | + | + |  |
| CO[C@]12C[C@@H](COC(=O)c3cncc(Br)c3)CN(C)[C@@H]1Cc1cn(C)c3cccc2c13 [nicergoline] | + | particularly efficient | + | + |  |
| CN/C(=N/CCSCc1nc[nH]c1C)NC#N [cimetidine] | + | particularly efficient | + | + |  |
| CCN(CC)CCOCCOC(=O)C1(c2ccccc2)CCCC1 [carbetapentane] | + | particularly efficient | + | + |  |
